Measured values from PMC9137512 (Antibiotics, 2022).

Assays:
[1] = Free dalbavancin in patient serum by solid phase extraction with a centrifugal device (Nanosep); format: in vivo, human; conditions: for fcmax(d1) *: day 1 peak; for fcmax(d1) * / fcmin(d8) *: free concentration determined by solid phase extraction (Nanosep); for fcmin(d8) *: day 8 trough; for fAUC(d8) *: from free concentration by solid phase extraction (Nanosep)
Experimental: The AUC was calculated using the trapezoidal rule.

clinical = conditions: for level at 192 h: iv
Experimental: The samples were subsequently analyzed according to the described method. […] The patients’ estimated glomerular filtration (eGFR) was calculated by the chronic kidney disease epidemiology collaboration equation (CKD–EPI). The AUC was calculated using the trapezoidal rule.
(§1) Subsequently, samples were mixed for 10 s, stored in an ultrasonic bath for 10 min at 40 °C, then centrifuged at 8000× g for 5 min. Next, 100 µL of the resulting supernatant was further diluted with 500 µL water with 0.1% formic acid. […] Details are described in the Supplementary Materials (Figures S1–S3).
An aliquot of 20 µL was injected onto the HPLC–UV system equipped with a diode array detector (Nexera-I 3D plus, Shimadzu, Duisburg, Germany). Chromatographic analysis was performed using a reversed phase column Shim-pack XR-ODS III with 2.2 µm particle size (150 mm × 2 mm, Shimadzu, Duisburg, Germany) in combination with a column guard (Shim-pack GISS-H (G) C18, 3 µm; 10 mm × 2.1 mm, Shimadzu, Duisburg, Germany). Separation was performed using a gradient of 0.1% formic acid in acetonitrile and 0.1% formic acid in water with a flow rate of 0.35 mL/min. The autosampler and column were set at temperatures of 10 °C and 45 °C, respectively.

[2] = cited from earlier work
From the text: Efficacy is associated with the area under the concentration-time curve (AUC) divided by the minimal inhibitory concentration (MIC). […] Standard in vitro me ...

[3] = Free concentration and protein binding in spiked human serum samples (Table S5)
Experimental: as §1
Table S5. […] In order to evaluate the
(a) Spiked human serum samples of 14 patients (8 critically ill and 6 non-critically ill) after calibration with sheep serum.
(b) Spiked human serum samples of 9 critically ill patients and 6 healthy volunteers after calibration with human serum.

[4] = S5a, serum of patient 2 (critically ill) spiked 200 mg/L, measured c 207 mg/L, calibration with sheep serum
[5] = S5a, serum of patient 3 (critically ill) spiked 50 mg/L, measured c 51.2 mg/L, calibration with sheep serum
[6] = S5b, serum of 26 (healthy volunteer) spiked 200 mg/L, measured c 219 mg/L, calibration with human serum
[7] = S5b, serum of 27 (healthy volunteer) spiked 50 mg/L, measured c 52.5 mg/L, calibration with human serum
[8] = S5b, serum of 27 (healthy volunteer) spiked 200 mg/L, measured c 220 mg/L, calibration with human serum
[9] = S5b, serum of 28 (healthy volunteer) spiked 50 mg/L, measured c 49.1 mg/L, calibration with human serum
[10] = S5b, serum of 28 (healthy volunteer) spiked 200 mg/L, measured c 199 mg/L, calibration with human serum

CN[C@H]1C(=O)N[C@@H]2Cc3ccc(cc3)Oc3cc4cc(c3O[C@@H]3O[C@H](C(=O)O)[C@@H](O)[C@H](O)[C@H]3NC(=O)CCCCCCCCC(C)C)Oc3ccc(cc3Cl)[C@@H](O)[C@@H]3NC(=O)[C@H](NC(=O)[C@@H]4NC(=O)[C@@H](NC2=O)c2cc(cc(O)c2Cl)Oc2cc1ccc2O)c1ccc(O)c(c1)-c1c(O[C@H]2O[C@H](CO)[C@@H](O)[C@H](O)[C@@H]2O)cc(O)cc1[C@@H](C(=O)NCCCN(C)C)NC3=O [dalbavancin, Dalbavancin]
maximum free fraction at total concentrations below the LOQ of 12.5 mg/L ([1]; in accordance with the higher protein binding observed): 0.4 mg/L
fcmax(d1) * ([1]; patient 1, 1500 mg): 5.4 mg/L
fcmin(d8) * ([1]; patient 1, 1500 mg): 1.3 mg/L
fAUC(d8) * ([1]; patient 1, 1500 mg): 31.2 mg·h/L
fcmax(d1) * ([1]; patient 2, 1500 mg): 6.4 mg/L
fcmin(d8) * ([1]; patient 2, 1500 mg): 1.0 mg/L
fAUC(d8) * ([1]; patient 2, 1500 mg): 24.0 mg·h/L
fcmax(d1) * ([1]; patient 3, 1500 mg): 6.7 mg/L
fcmin(d8) * ([1]; patient 3, 1500 mg): <1.0 mg/L
fAUC(d8) * ([1]; patient 3, 1500 mg): <24.0 mg·h/L
Cmax (clinical; human, in vivo, 1500 mg, cmax(d1)): 278 µg/mL
level at 192 h (clinical; human, in vivo, 1500 mg, cmin(d8)): 44900 ng/mL
level at 192 h (clinical; human, in vivo, trough concentrations on day 8 before redosing): 23000 to 44900 ng/mL
peak concentrations after the initial dosing (clinical; range of three cardiologic patients, total serum): 201 to 278 mg/L
elimination half-life ([2]; approximately): > 14 days
clearance [2]: 0.05 L/h
fc ([3]; S5a, serum of patient 1 (critically ill) spiked 50 mg/L, measured c 53.5 mg/L, Nanosep SPE, HPLC-UV, calibration with sheep serum): 1.4 mg/L
fc ([3]; S5a, serum of patient 1 (critically ill) spiked 200 mg/L, measured c 201 mg/L, calibration with sheep serum): 7.6 mg/L
fc ([3]; S5a, serum of patient 2 (critically ill) spiked 50 mg/L, measured c 53.6 mg/L, calibration with sheep serum): 1.7 mg/L
PB [3, 4]: 96%
fc [3, 4]: 9.0 mg/L
PB [3, 5]: 96%
fc [3, 5]: 1.9 mg/L
fc ([3]; S5a, serum of patient 3 (critically ill) spiked 200 mg/L, measured c 209 mg/L, calibration with sheep serum): 9.1 mg/L
fc ([3]; S5a, serum of patient 4 (critically ill) spiked 50 mg/L, measured c 54.2 mg/L, calibration with sheep serum): 1.6 mg/L
fc ([3]; S5a, serum of patient 4 (critically ill) spiked 200 mg/L, measured c 212 mg/L, calibration with sheep serum): 7.7 mg/L
fc ([3]; S5a, serum of patient 5 (critically ill) spiked 50 mg/L, measured c 53.0 mg/L, calibration with sheep serum): 2.1 mg/L
fc ([3]; S5a, serum of patient 5 (critically ill) spiked 200 mg/L, measured c 203 mg/L, calibration with sheep serum): 9.5 mg/L
fc ([3]; S5a, serum of patient 6 (critically ill) spiked 50 mg/L, measured c 50.4 mg/L, calibration with sheep serum): 1.5 mg/L
fc ([3]; S5a, serum of patient 6 (critically ill) spiked 200 mg/L, measured c 204 mg/L, calibration with sheep serum): 9.2 mg/L
fc ([3]; S5a, serum of patient 7 (critically ill) spiked 50 mg/L, measured c 49.1 mg/L, calibration with sheep serum): 2.4 mg/L
fc ([3]; S5a, serum of patient 7 (critically ill) spiked 200 mg/L, measured c 195 mg/L, calibration with sheep serum): 10.2 mg/L
fc ([3]; S5a, serum of patient 8 (critically ill) spiked 50 mg/L, measured c 54.3 mg/L, calibration with sheep serum): 1.8 mg/L
fc ([3]; S5a, serum of patient 8 (critically ill) spiked 200 mg/L, measured c 201 mg/L, calibration with sheep serum): 8.7 mg/L
fc ([3]; S5a, serum of patient 9 (non-critically ill) spiked 50 mg/L, measured c 40.0 mg/L, calibration with sheep serum): < 1.0 mg/L
fc ([3]; S5a, serum of patient 9 (non-critically ill) spiked 200 mg/L, measured c 177 mg/L, calibration with sheep serum): 3.7 mg/L
fc ([3]; S5a, serum of patient 10 (non-critically ill) spiked 50 mg/L, measured c 47.8 mg/L, calibration with sheep serum): < 1.0 mg/L
fc ([3]; S5a, serum of patient 10 (non-critically ill) spiked 200 mg/L, measured c 180 mg/L, calibration with sheep serum): 4.0 mg/L
fc ([3]; S5a, serum of patient 11 (non-critically ill) spiked 50 mg/L, measured c 38.6 mg/L, calibration with sheep serum): < 1.0 mg/L
fc ([3]; S5a, serum of patient 11 (non-critically ill) spiked 200 mg/L, measured c 177 mg/L, calibration with sheep serum): 3.5 mg/L
fc ([3]; S5a, serum of patient 12 (non-critically ill) spiked 50 mg/L, measured c 42.6 mg/L, calibration with sheep serum): < 1.0 mg/L
fc ([3]; S5a, serum of patient 12 (non-critically ill) spiked 200 mg/L, measured c 195 mg/L, calibration with sheep serum): 3.9 mg/L
fc ([3]; S5a, serum of patient 13 (non-critically ill) spiked 50 mg/L, measured c 53.0 mg/L, calibration with sheep serum): 1.1 mg/L
fc ([3]; S5a, serum of patient 13 (non-critically ill) spiked 200 mg/L, measured c 214 mg/L, calibration with sheep serum): 6.3 mg/L
fc ([3]; S5a, serum of patient 14 (non-critically ill) spiked 50 mg/L, measured c 50.0 mg/L, calibration with sheep serum): 1.1 mg/L
fc ([3]; S5a, serum of patient 14 (non-critically ill) spiked 200 mg/L, measured c 208 mg/L, calibration with sheep serum): 4.6 mg/L
fc ([3]; S5b, serum of 24 (healthy volunteer) spiked 50 mg/L, measured c 46.1 mg/L, calibration with human serum): 1.6 mg/L
fc ([3]; S5b, serum of 24 (healthy volunteer) spiked 200 mg/L, measured c 184 mg/L, calibration with human serum): 4.6 mg/L
fc ([3]; S5b, serum of 25 (healthy volunteer) spiked 50 mg/L, measured c 45.8 mg/L, calibration with human serum): 1.6 mg/L
fc ([3]; S5b, serum of 25 (healthy volunteer) spiked 200 mg/L, measured c 197 mg/L, calibration with human serum): 5.8 mg/L
fc ([3]; S5b, serum of 26 (healthy volunteer) spiked 50 mg/L, measured c 52.6 mg/L, calibration with human serum): 1.6 mg/L
PB [3, 6]: 97%
fc [3, 6]: 5.2 mg/L
PB [3, 7]: 97%
fc [3, 7]: 1.7 mg/L
PB [3, 8]: 97%
fc [3, 8]: 5.1 mg/L
PB [3, 9]: 97%
fc [3, 9]: 1.6 mg/L
PB [3, 10]: 98%
fc [3, 10]: 4.8 mg/L
PB ([3]; S5b, serum of 29 (healthy volunteer) spiked 50 mg/L, measured c 52.0 mg/L, calibration with human serum): 97%
